Data taken from patent US9896481B2, “Modified mini-hepcidin peptides and methods of using thereof” (priority 2011, dated 2018).
Read-outs that look alike come from different tables or passages of the source. Starred links: 1 amine or outer side, 2 acyl side, 3 side chain; linkers in the order of their positions; H or OH if unused. Positions of bridges follow the written chain, without caps; N, C: chain ends. Non-standard residues stand in square brackets, D forms with d. Residues, ends and D or L forms follow the SMILES beside them. *: point of attachment. Ursodeoxycholyl = C[C@H](CCC(=O)*)[C@H]1CC[C@H]2[C@@H]3[C@@H](O)C[C@@H]4C[C@H](O)CC[C@]4(C)[C@H]3CC[C@]12C; TTDA(Palmitoyl) = CCCCCCCCCCCCCCCC(=O)NCCCOCCOCCOCCCN*; PEG12 = NCCOCCOCCOCCOCCOCCOCCOCCOCCOCCOCCOCCOCCC(=O)O; dDip = N[C@@H](C(=O)O)C(c1ccccc1)c1ccccc1; Dip = N[C@H](C(=O)O)C(c1ccccc1)c1ccccc1; Palmitoyl = CCCCCCCCCCCCCCCC(=O)*; X2 = O=C(C1CCC(CN[*:1])CC1)[*:2]; β3hF = N[C@H](CC(=O)O)Cc1ccccc1; NMeD = CN[C@@H](CC(=O)O)C(=O)O; Cysteamide = C(CS[*:3])N[*:1]; β3hP = O=C(O)C[C@@H]1CCCN1; AEEEA = NCCOCCOCCOCC(=O)O; Dap = NC[C@H](N)C(=O)O; Inp = O=C(O)C1CCNCC1

Tests used:
mouse = test: Activity at 20 nmoles/mouse: serum iron 4 hours after injection versus solvent (Tables 3 and 4); assay type: in vivo; set-up: key: Y: “Active” means that at 4 hours after injection serum iron in peptide-injected mice decreased statistically significantly (p < 0.05) compared to solvent-injected mice; Y*: Exhibits detectable and reproducible activity at about 50% lower than the most active compounds in Table 3 and 4; details: Table 3, intraperitoneal
[1] = target: T1, ferroportin tagged at the C-terminus with green fluorescent protein (Fpn-GFP) (Mus musculus, UniProt Q9JHI9); test: Flow cytometry of ferroportin-GFP degradation in ECR293/Fpn-GFP cells; assay type: cell-based
T1 construct: expressed in transfected cells; host or cells: ECR293/Fpn-GFP (stably transfected, ponasterone-inducible)
T1 sequence (Q9JHI9 1-570): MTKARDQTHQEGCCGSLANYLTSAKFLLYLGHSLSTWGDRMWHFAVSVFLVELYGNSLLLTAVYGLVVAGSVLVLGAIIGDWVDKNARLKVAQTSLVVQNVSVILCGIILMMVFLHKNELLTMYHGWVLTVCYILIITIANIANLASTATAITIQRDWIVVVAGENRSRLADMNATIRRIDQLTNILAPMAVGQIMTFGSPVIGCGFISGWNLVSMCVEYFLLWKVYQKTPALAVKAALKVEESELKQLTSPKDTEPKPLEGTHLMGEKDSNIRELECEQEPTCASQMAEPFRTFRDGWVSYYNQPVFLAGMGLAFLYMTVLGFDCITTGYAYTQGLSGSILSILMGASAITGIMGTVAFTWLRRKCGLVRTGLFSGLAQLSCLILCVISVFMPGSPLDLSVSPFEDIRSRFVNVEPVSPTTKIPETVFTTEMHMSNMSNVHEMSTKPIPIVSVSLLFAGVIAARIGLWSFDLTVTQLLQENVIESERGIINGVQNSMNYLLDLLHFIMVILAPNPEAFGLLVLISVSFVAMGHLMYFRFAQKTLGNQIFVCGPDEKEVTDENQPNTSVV
Description: In vitro activity may be measured by the dose-dependent loss of fluorescence of cells engineered to display ferroportin fused to green fluorescent protein as in Nemeth et al. (2006) Blood 107:328-33. Aliquots of cells are incubated for 24 hours with graded concentrations of a reference preparation of Hep25 or a mini-hepcidin. As provided herein, the EC50 values are provided as the concentration of a given compound (e.g. peptide) that elicits 50% of the maximal loss of fluorescence generated by the reference Hep25 preparation.
Mutational studies indicate that C326, the cysteine residue at position 326 of human ferroportin, is the critical residue involved in binding hepcidin. Thus, various N-terminal fragments of Hep25 containing a thiol, i.e. Hep 4-7, Hep3-7, Hep3-8, Hep3-9, Hep1-7, Hep1-8, Hep1-9, and Hep1-10 C7A, were chemically synthesized, refolded and their activities relative to Hep25 were assayed using flow-cytometric quantitation of the ferroportin-GFP degradation, iron efflux estimation based on measurements of cellular ferritin, and radioisotopic iron efflux studies.
The activity of peptides of the present invention was measured by flow cytometry as previously described. See Nemeth et al. (2006) Blood 107:328-333, which is herein incorporated by reference. ECR293/Fpn-GFP, a cell line stably transfected with a ponasterone-inducible ferroportin construct tagged at the C-terminus with green fluorescent protein was used. See Nemeth et al. (2004) Science 306:2090-2093, which is herein incorporated by reference. Briefly, the cells were plated on poly-D-lysine coated plates in the presence of 20 μM FAC, with or without 10 μM ponasterone. After 24 hours, ponasterone was washed off, and cells were treated with peptides for 24 hours. Cells were then trypsinized and resuspended at 1×10^6 cells/ml, and the intensity of green fluorescence was analyzed by flow cytometry. Flow cytometry was performed on FAC SCAN (fluorescence activated cell scanner) Analytic Flow Cytometer (Becton Dickinson, San Jose, Calif.) with […] version 3.3 software (Becton Dickinson). Cells not induced with ponasterone to express Fpn-GFP were used to establish a gate to exclude background fluorescence. Cells induced with ponasterone, but not treated with any peptides, were used as the positive control. Each peptide was tested over the range of concentrations (0, 0.01, 0.03, 0.1, 0.3, 1, 3 and 10 μM). Each peptide treatment was repeated independently 3 to 6 times. For each concentration of peptide, the results were expressed as a fraction of the maximal activity (FHep25) of Hep25 (in the dose range 0.01-10 μM), according to the formula 1−((Fx−FHep25)/(Funtreated−FHep25)), where F was the mean of the gated green fluorescence and x was the peptide.

C57/Bl6J mice = test: Serum iron assay in mice on low-iron diet, 4 hours after peptide; assay type: in vivo, mouse; set-up: key to active in vivo: *active in vivo; details: for active in vivo: asterisk at the EC50 value of Table 1
Description: The decrease in serum iron after peptide administration is the principal measure of hepcidin activity. Thus, as provided herein, the hepcidin activity of selected peptides of the present invention were assayed in vivo by measuring serum iron in test subjects. Briefly, C57/Bl6J mice were maintained on NIH 31 rodent diet (333 parts per million (ppm) iron; Harlan Teklad, Indianapolis, Ind.). Two weeks before the experiment, the mice were switched to a diet containing about 2-4 ppm iron (Harlan Teklad, Indianapolis, Ind.) in order to suppress endogenous hepcidin. Peptide stocks were diluted to desired concentrations in sterile phosphate buffered saline (PBS) or other diluents as described next. Mice were subjected to the following treatments: (a) Injected intraperitoneally either with 100 μl PBS (control) or with 50 μg peptide in 100 μl PBS; (b) Injected with 100 μl of peptide (or PBS) mixed with 500 μg empty liposomes COATSOME EL series (NOF, Tokyo, Japan) (prepared as per manufacturer's recommendation); (c) Injected with 100 μl peptides (or PBS) solubilized with SL220 solubilization agent (NOF, Tokyo, Japan); (d) Gavaged with 250 μl of peptide (or PBS) in 1× solvent (Cremophor EL (Sigma)/ethanol/PBS; (12.5:12.5:75)). Mice were sacrificed 4 hours later, blood was collected by cardiac puncture, and serum was separated using MICROTAINER tubes (Becton Dickinson, Franklin Lakes, N.J.). Serum iron was determined by using a colorimetric assay (Diagnostic Chemicals, Oxford, Conn.), which was modified for the microplate format so that 10 μl serum was used per measurement. The results were expressed as the percentage of decrease in serum iron when compared with the average value of serum iron levels in PBS-treated mice.

CCCCCCCCCCCCCCCC(=O)NCCCOCCOCCOCCCNC(=O)COCCOCCOCCNC(=O)C[C@H](Cc1ccccc1)NC(=O)[C@H](CCCNC(=N)N)NC(=O)[C@H](CS)NC(=O)[C@H](CCCNC(=N)N)NC(=O)C[C@@H]1CCCN1C(=O)[C@@H](NC(=O)[C@H](Cc1c[nH]cn1)NC(=O)[C@@H](NC(=O)[C@H](CC(=O)O)NC)[C@@H](C)O)C(c1ccccc1)c1ccccc1 [PR57] (H-[NMeD]TH[Dip][β3hP]RCR[β3hF][AEEEA]-{TTDA(Palmitoyl)}; N-terminus and C-terminus assumed)
Active @ 20 nmoles/mouse IP (mouse): Y

CCCCCCCCCCCCCCCC(=O)NCCOCCOCCOCCOCCOCCOCCOCCOCCOCCOCCOCCOCCC(=O)N[C@H](Cc1ccccc1)C(=O)N[C@@H](C(=O)N[C@H](CS)C(=O)N[C@@H](C(=O)N1CCC[C@@H]1C(=O)N[C@H](Cc1ccccc1)C(=O)N[C@H](Cc1c[nH]cn1)C(=O)N[C@@H](C(=O)N[C@H](CC(=O)O)C(N)=O)[C@H](C)O)[C@H](C)CC)[C@H](C)CC [PR27]
EC50 ([1]; Table 1, 24 h peptide treatment, 50% of maximal loss of fluorescence by Hep25, read-out: EC50): 20 nM | serum iron (C57/Bl6J mice; 20 nmoles i.p. in PBS): comparable to that caused by i.p. administration of 20 nmoles Hep25 | serum iron (C57/Bl6J mice; 200 nmoles i.p. in PBS): even greater decrease | serum iron (C57/Bl6J mice; 200 nmoles oral by gavage in Cremophor EL solution): caused a decrease in serum iron | active in vivo (C57/Bl6J mice): *

CC[C@H](C)[C@H](NC(=O)[C@H](CS)NC(=O)[C@@H](NC(=O)[C@@H]1CCCN1C(=O)[C@H](Cc1ccccc1)NC(=O)[C@H](Cc1c[nH]cn1)NC(=O)[C@@H](NC(=O)[C@@H](N)CC(=O)O)[C@@H](C)O)[C@@H](C)CC)C(=O)N[C@@H](Cc1ccccc1)C(N)=O [Hep9]
serum iron (C57/Bl6J mice; 50 μg per mouse i.p. in PBS, after 4 hours): did not result in a serum iron decrease

CC[C@@H](C)[C@@H](NC(=O)[C@@H](Cc1ccccc1)NC(=O)CCOCCOCCOCCOCCOCCOCCOCCOCCOCCOCCOCCOCCNC(=O)[C@@H](CC(=O)O)NC(=O)CC[C@@H](C)[C@H]1CC[C@H]2[C@@H]3[C@@H](O)C[C@@H]4C[C@H](O)CC[C@]4(C)[C@H]3CC[C@]12C)C(=O)N[C@H](CS)C(=O)N[C@@H](C(=O)N1CCC[C@@H]1C(=O)N[C@H](Cc1ccccc1)C(=O)N[C@H](Cc1c[nH]cn1)C(=O)N[C@@H](C(=O)N[C@H](CC(=O)O)C(N)=O)[C@H](C)O)[C@H](C)CC [PR24] (Ursodeoxycholyl-[dD][PEG12][dF][dI][dC][dI][dP][dF][dH][dT][dD]-NH2)
active in vivo (C57/Bl6J mice): *

CCCCCCCCCCCCCCCC(=O)NC[C@H](NC(=O)CCCCCCCCCCCCCCC)C(=O)NCCOCCOCCOCCOCCOCCOCCOCCOCCOCCOCCOCCOCCC(=O)N[C@H](Cc1ccccc1)C(=O)N[C@@H](C(=O)N[C@H](CS)C(=O)N[C@@H](C(=O)N1CCC[C@@H]1C(=O)N[C@H](Cc1ccccc1)C(=O)N[C@H](Cc1c[nH]cn1)C(=O)N[C@@H](C(=O)N[C@H](CC(=O)O)C(N)=O)[C@H](C)O)[C@H](C)CC)[C@H](C)CC [PR28] (Palmitoyl-[Dap](Palmitoyl)[PEG12][dF][dI][dC][dI][dP][dF][dH][dT][dD]-NH2)
serum iron (C57/Bl6J mice; 20 nmoles i.p. in liposomal solution): lesser ability to decrease serum iron than PR27

CCCCCCCCCCCCCCCC(=O)NCCCOCCOCCOCCCNC(=O)COCCOCCOCCNC(=O)[C@H](Cc1ccccc1)NC(=O)C1(NC(=O)[C@H](CS)NC(=O)C2(NC(=O)[C@@H]3CCCN3C(=O)[C@@H](NC(=O)[C@H](Cc3c[nH]cn3)NC(=O)[C@@H](NC(=O)CNCC(=O)O)[C@@H](C)O)C(c3ccccc3)c3ccccc3)CCCCC2)CCCCC1 [PR60]
Active @ 20 nmoles/mouse IP (mouse): Y*

CCCCCCCCCCCCCCCC(=O)NCCOCCOCCOCCOCCOCCOCCOCCOCCOCCOCCOCCOCCC(=O)N[C@H](Cc1ccccc1)C(=O)N[C@@H](C(=O)N[C@H](CS)C(=O)N[C@@H](C(=O)N1CCC[C@@H]1C(=O)N[C@@H](C(=O)N[C@H](Cc1c[nH]cn1)C(=O)N[C@@H](C(=O)N[C@H](CC(=O)O)C(N)=O)[C@H](C)O)C(c1ccccc1)c1ccccc1)[C@H](C)CC)[C@H](C)CC [PR47, R4-F-I-C-I-P-Dpa-H-T-D] ({Palmitoyl-PEG12}-[dF][dI][dC][dI][dP][dDip][dH][dT][dD]-NH2)
EC50 ([1]; read-out: EC50 (nM) in vitro, Table 3): 50 nM

N=C(N)NCCC[C@@H]1NC(=O)C2CCC(CC2)CNC(=O)[C@@H](C(c2ccccc2)c2ccccc2)NC(=O)[C@@H]2CCCN2C(=O)[C@@H](N)CSSCCNC(=O)[C@H](C(c2ccccc2)c2ccccc2)NC(=O)C2CCN(CC2)C(=O)C2CCC(CC2)CNC1=O [PR-2] (H-CP[dDip][X2]R[X2][Inp][Dip]-Cysteamide; disulfide 1-C)
EC50 ([1]; read-out: EC50): 2000 nM
